Substitutions are numbered along the chain they refer to. Where two headings read alike, the source gives them in different places.

The values that follow come from PMC5464333, “The binding orientations of structurally-related ligands can differ; A cautionary note” (Neuropharmacology, 2017).

In test [1] the target is T1, 5-HT3A receptor wild type (Homo sapiens, UniProt P46098).
T1 construct: expressed in transfected cells; host or cells: HEK293, transient, pcDNA3.1
T1 sequence (P46098 24-478): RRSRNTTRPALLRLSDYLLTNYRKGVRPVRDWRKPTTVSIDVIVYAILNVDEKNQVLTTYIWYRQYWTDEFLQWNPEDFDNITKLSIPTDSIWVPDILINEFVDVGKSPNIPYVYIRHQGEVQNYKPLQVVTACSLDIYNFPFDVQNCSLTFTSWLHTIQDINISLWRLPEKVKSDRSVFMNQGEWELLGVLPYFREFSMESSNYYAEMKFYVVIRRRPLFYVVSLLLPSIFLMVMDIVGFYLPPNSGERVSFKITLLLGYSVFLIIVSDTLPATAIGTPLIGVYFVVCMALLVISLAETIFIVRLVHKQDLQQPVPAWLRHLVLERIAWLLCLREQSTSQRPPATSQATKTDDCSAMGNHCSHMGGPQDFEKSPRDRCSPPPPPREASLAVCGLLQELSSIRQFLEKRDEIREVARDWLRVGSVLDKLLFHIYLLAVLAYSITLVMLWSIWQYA
Nature of the test: Saturation radioligand binding, wild type 5-HT3A receptor in HEK293. As to conditions: wild type 5-HT3 receptors. Here is the method:
(§1) Human 5-HT3A subunit cDNA (Accession: P46098, kindly provided by J. Peters, Dundee University, UK) was cloned into pcDNA3.1 for expression in HEK293 cells. […] Cells were transiently transfected with either of these cDNA constructs using polyethyleneimine (PEI: 25 kDa, linear, powder, Polysciences Inc., Eppelheim, Germany). 30 μl of PEI (1 mg ml^−1), 5 μg cDNA and 1 ml DMEM were incubated for 10 min at room temperature, added drop wise to a 90 mm plate of 70–80% conﬂuent HEK293 cells, and incubated for 2–3 days before use.
(§2) Transfected HEK 293 cells were scraped into 0.6 ml of ice-cold 10 mM HEPES buffer (pH 7.4) and frozen. After thawing, they were washed with HEPES buffer, homogenised by trituration through a 25 gauge (0.5 mm) needle, and 50 μg of cell suspension incubated in 0.5 ml HEPES buffer containing different concentrations of radioligand. […] Equilibrium reactions were incubated on ice for at least 1 h and terminated by vacuum filtration onto Whatman GF/B filters wetted with 0.3% polyethyleneimine, followed by two rapid washes with 2.5 ml ice cold buffer. Radioactivity was measured by scintillation in Ultima Gold XR (Perkin Elmer, Waltham, MA) using a Tri-Carb 2100 TR (PerkinElmer) scintillation counter. Final counts were monitored to ensure that binding never exceeded 10% of the added concentrations of radioligands.
(§3) All data were analysed using GraphPad Prism v5. […]

For test [2], the target named is T2, 5-HT3A receptor R92C mutant (Homo sapiens, UniProt P46098, R87C).
T2 construct: expressed in transfected cells; host or cells: HEK293, transient, pcDNA3.1
T2 sequence (P46098 24-478 R87C): T1 sequence (P46098 24-478) with R64C
As to the kind of experiment: Saturation radioligand binding, 5-HT3A R92C mutant. The settings on record: R92C versus wild type. On the procedure: (§4) Mutagenesis was performed using the QuikChange method (Agilent Technologies Inc., California, USA). Cysteine residues were substituted for amino acids throughout each of the binding loops A - E (Fig. 1). To facilitate comparisons with previous work, we have used the numbering of the equivalent residues in the mouse 5-HT3A subunit (Q6J1J7).
as §1
(§5) Transfected HEK 293 cells were scraped into 0.6 ml of ice-cold 10 mM HEPES buffer (pH 7.4) and frozen. […] Radioactivity was measured by scintillation in Ultima Gold XR (Perkin Elmer, Waltham, MA) using a Tri-Carb 2100 TR (PerkinElmer) scintillation counter. Final counts were monitored to ensure that binding never exceeded 10% of the added concentrations of radioligands.
as §3

Test [3] concerns the target T3, 5-HT3A receptor L126C mutant (Homo sapiens, UniProt P46098, L121C).
T3 construct: expressed in transfected cells; host or cells: HEK293, transient, pcDNA3.1
T3 sequence (P46098 24-478 L121C): T1 sequence (P46098 24-478) with L98C
Nature of the test: Saturation radioligand binding, 5-HT3A L126C mutant. As to conditions: L126C versus wild type. On the procedure: as §4, §1, §5, §3

Test [4] has as its target α7 nACh receptor (UniProt P22770+P23979, M226I/T225I). As to conditions: α7 nACh receptors. On the procedure:
as §1, §2
All data were analysed using GraphPad Prism v5. Individual saturation binding experiments were fitted to the equation below and the fitted values averaged to yield mean ± sem of n independent experiments: y=[…] where Bmax is maximum binding at equilibrium, Kd is the equilibrium dissociation constant and [L] is the free concentration of radioligand. Affinities were compared using 1-way ANOVA and a Dunnett's Post-Test.

The target of test [5] is α7 nACh receptor. As to conditions: α7 nACh receptors; ref Macor et al. (2001); cited from earlier work.
Test [6] deals with α7 nACh receptor. The settings on record: low potency agonist, cited from earlier work.
In another test the target is AChBP. The settings on record: AChBP used for co-crystallisation; ref Hibbs et al., 2009; read-out: affinity; cited from earlier work.

Sequence of α7 nACh receptor (UniProt P22770+P23979, M226I/T225I) (P22770+P23979 fused P22770:T225I/P22770:M226I): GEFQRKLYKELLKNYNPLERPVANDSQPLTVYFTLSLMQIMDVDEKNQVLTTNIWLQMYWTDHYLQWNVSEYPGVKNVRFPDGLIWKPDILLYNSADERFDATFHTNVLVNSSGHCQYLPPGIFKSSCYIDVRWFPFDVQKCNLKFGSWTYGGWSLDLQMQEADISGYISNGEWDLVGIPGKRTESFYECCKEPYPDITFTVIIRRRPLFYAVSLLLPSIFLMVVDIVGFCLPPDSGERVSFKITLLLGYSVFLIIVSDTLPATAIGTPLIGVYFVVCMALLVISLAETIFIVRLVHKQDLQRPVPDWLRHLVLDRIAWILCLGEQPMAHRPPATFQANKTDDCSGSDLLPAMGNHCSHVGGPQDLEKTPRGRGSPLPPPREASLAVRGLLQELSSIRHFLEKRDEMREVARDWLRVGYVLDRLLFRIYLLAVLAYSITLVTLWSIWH

For the compound `CN1[C@@H]2CC[C@H]1C[C@@H](OC(=O)c1c[nH]c3ccccc13)C2` [tropisetron, Tropisetron], the “Non-specific binding, of total” value in test [1] was 30.3 ± 1.8%. In test [2], this compound displayed a reduction in affinity of 2.5 fold. In test [3], this compound yielded a change in affinity of 2.5 fold. At α7 nACh receptor [4], the saturation binding entry is listed as “undetectable”. Besides, the Ki (in general, a dissociation constant, usually derived from enzyme kinetics or from competition with a known ligand) on α7 nACh receptor [5] was 0.0069 µM. The EC50 (in general, the concentration that produces a half-maximal response) on α7 nACh receptor [6] (ref Macor et al., 2001) is 1.3 µM; on α7 nACh receptor [6] (ref Papke et al., 2005) it was 0.6 µM. The Kd on AChBP is 0.5 µM.
